Assay results: patent US20110288134A1, “COMPOSITION AND METHOD FOR TREATING FIBROSIS” (Pacific Therapeutics Ltd., priority 2008, published 2011)
Read-outs that look alike come from different tables or passages of the source.

Legend:
[1] = test system: TGF-β1 induced ECM accumulation in HFL1 human lung fibroblast cells; experiment: TGF-β1 induced monolayer extracellular matrix (ECM) accumulation assay (Sirius Red collagen) in fibronectin-coated plates; format: cell-based; settings: for inhibition at 300 µM: compound alone at 300 μM (FIG. 1)
Text: The composition comprising tranilast and NAC or composition containing pirfenidone and NAC was investigated for their antifibrotic activity by employing in vitro collagen synthesis assay: the TGF-β1 induced monolayer extracellular matrix (ECM) accumulation assay in fibronectin-coated plates.
Method Human lung fibroblast cell line, HFL1, was purchased from American Type Culture Collection. Cells were maintained in FK12 medium supplemented with 10% FBS and antibiotics. Cells were trypsinized and seeded into 96-well fibronectin-coated plate as 5×10^4cells/well and cultured overnight to achieve 60-80% confluence. After a washing with PBS and serum-free medium, fresh medium supplemented with 40 pM of TGF-β1 was added in each test well. Different concentrations of tranilast, pirfenidone, NAC and their combinations were also added to some test wells. The plates were left at 37° C. in a CO2 incubator for 72 h. After removing medium cells were fixed to the plate with 0.5% glutaraldehyde for 30 minutes at room temperature. Cells were washed and treated with 0.5M acetic acid for 30 minutes. After washing cells with distilled water 250 µl of Sirius Red was added for 2 hours. Dye was removed and cells were washed with distilled water. Sirius Red was eluted with 200 ul 0.1 N sodium hydroxide, and the optical density at 540 nm was determined using a Molecular Dynamics spectrophotometer.

[2] = doses of up to 600 mg/day for at least 3 months, many years of clinical use; cited from earlier work
[3] = cited from earlier work
[4] = HFL1 cells, 40 pM TGF-β1, 72 h, compound alone at 10 μM (FIG. 1)
[5] = Homo sapiens, HFL1 cells, 40 pM TGF-β1, 72 h, read-out: inhibition of TGF-β1 mediated ECM (collagen) accumulation
[6] = combination screen plate (FIG. 2A/3A), HFL1 cells, compound alone at 300 μM

CC(=O)N[C@@H](CS)C(=O)O [NAC, N-acetyl-cysteine]
inhibition of TGF-β1 mediated ECM accumulation ([1]; HFL1 cells, 40 pM TGF-β1, 72 h, alone at 0.1 mM (FIG. 1C)): not effective | inhibition of TGF-β1 mediated ECM accumulation ([1]; HFL1 cells, 40 pM TGF-β1, 72 h, alone at 0.5 mM (FIG. 1C)): not effective | inhibition of TGF-β1 mediated ECM accumulation ([1]; HFL1 cells, 40 pM TGF-β1, 72 h, alone at 1 mM (FIG. 1C)): not effective | suppression of TGF-β1 mediated ECM accumulation ([1]; HFL1 cells, 40 pM TGF-β1, 72 h, alone at 2 mM (FIG. 1C)): 32±14% | suppression of TGF-β1 mediated ECM accumulation ([1]; HFL1 cells, 40 pM TGF-β1, 72 h, alone at 5 mM (FIG. 1C)): 45±17% | suppression of TGF-β1 mediated ECM accumulation ([1]; HFL1 cells, 40 pM TGF-β1, 72 h, alone at 10 mM (FIG. 1C)): 70.5±18% | inhibition at 20000 µM ([1]; Homo sapiens, HFL1 cells, 40 pM TGF-β1, 72 h, alone at 20 mM (FIG. 1C), read-out: inhibition of TGF-β1 mediated ECM accumulation): 100% | suppression of TGF-β1 mediated collagen accumulation ([1]; screen plate FIG. 2A, compound alone at 2 mM): 25%

COc1ccc(/C=C/C(=O)Nc2ccccc2C(=O)O)cc1OC [tranilast, n-[3,4-dimethoxycinnamoyl] anthranilic acid]
shift in the potency of tranilast ([1]; 50 μM tranilast with 2 mM NAC (88%) versus tranilast alone (11%)): 8 fold | inhibition of TGF-β1 mediated ECM (collagen) accumulation [1, 4]: no significant inhibition | inhibition of TGF-β1 mediated ECM (collagen) accumulation ([1]; HFL1 cells, 40 pM TGF-β1, 72 h, compound alone at 25 μM (FIG. 1)): no significant inhibition | inhibition of TGF-β1 mediated ECM (collagen) accumulation ([1]; HFL1 cells, 40 pM TGF-β1, 72 h, compound alone at 50 μM (FIG. 1)): no significant inhibition | inhibition at 100 µM ([1]; Homo sapiens, HFL1 cells, 40 pM TGF-β1, 72 h, compound alone at 100 μM (FIG. 1), read-out: inhibition of TGF-β1 mediated ECM (collagen) accumulation): 34 ± 11% | inhibition at 300 µM [1, 5]: 100% | suppression of TGF-β1 mediated collagen accumulation [1, 6]: 100% | suppression of TGF-β1 mediated collagen accumulation ([1]; screen plate FIG. 2A, compound alone at 50 μM): 11% | clinical safety and tolerability [2]: safe and well tolerated | plasma concentration ([3]; after oral administration of the usual therapeutic dose of 600 mg/day (Kusama et al. 1999)): 30 to 300 µM

Cc1ccc(=O)n(-c2ccccc2)c1 [pirfenidone, 5-methyl-L-phenyl-2-(1H)-pyridone]
inhibition of TGF-β1 mediated ECM (collagen) accumulation [1, 4]: not effective | inhibition of TGF-β1 mediated ECM (collagen) accumulation ([1]; HFL1 cells, 40 pM TGF-β1, 72 h, compound alone at 100 μM (FIG. 1)): not effective | inhibition at 1000 µM ([1]; Homo sapiens, HFL1, screen plate FIG. 3A, compound alone at 1000 μM, read-out: anti-fibrosis activity (inhibition of TGF-β1 induced collagen accumulation)): 100% | inhibition at 300 µM [1, 5]: 22 ± 7% | inhibition at 500 µM ([1]; Homo sapiens, HFL1 cells, 40 pM TGF-β1, 72 h, compound alone at 500 μM (FIG. 1), read-out: inhibition of TGF-β1 mediated ECM (collagen) accumulation): 33 ± 8% | inhibition at 1000 µM ([1]; Homo sapiens, HFL1 cells, 40 pM TGF-β1, 72 h, compound alone at 1000 μM (FIG. 1), read-out: inhibition of TGF-β1 mediated ECM (collagen) accumulation): ~100% | suppression of TGF-β1 mediated collagen accumulation [1, 6]: 18% | plasma concentration ([3]; usual therapeutic dose of 1200 mg/day (Shi, Wu et al. 2007)): 100 to 1000 µM
